Several values for one entry are separate records, joined by “and”; a condition that tells them apart may be missing. Equal values may be shown once.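 Test compounds were applied to cells in 96-well plates for 48 hours at 5 doses. At the GI50, growth is halved. TGI is the concentration that stops growth completely.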
Tests used:
Assay in all cases: DTP human tumour cell line panel, 48 h
[1] = system: 786-0 renal
[2] = system: ACHN renal
[3] = system: HCT-116 colon
[4] = system: HOP-62 NSCLC
[5] = system: HT29 colon
[6] = system: K-562 leukemia
[7] = system: MDA-MB-435
[8] = system: MDA-N
[9] = system: OVCAR-5 ovarian
[10] = system: SF-268 CNS
[11] = system: TK-10 renal
[12] = system: UACC-62 melanoma
[13] = system: MALME-3M melanoma
[14] = system: NCI-H522 lung
[15] = system: MOLT-4 leukemia

SMILES	TGI [1] [µM]	TGI [2] [µM]	TGI [3] [µM]	TGI [4] [µM]	TGI [5] [µM]	TGI [6] [µM]	TGI [7] [µM]	TGI [8] [µM]	TGI [9]	TGI [10] [µM]	TGI [11] [µM]	TGI [12]	TGI [13] [µM]	TGI [14] [µM]	TGI [15]	GI50 [4] [µM]	GI50 [15] [µM]	GI50 [14] [µM]	GI50 [11] [µM]	GI50 [12] [µM]
C=CCOC(OCC=C)/C(Br)=C/C	34	45.3	28.1	> 100	62.3	> 100	> 100	> 100	> 100 µM	75.2	> 100	> 100 µM	–	–	–	–	–	–	–	–
Cc1cc2c(c(S(=O)(=O)c3ccccc3[N+](=O)[O-])c1)NCCC2	> 100	> 100	–	> 100	> 100	–	> 100	> 100	> 100 µM	> 100	> 100	> 100 µM	> 100	> 100	–	–	–	–	–	–
C=C(C)[C@H]1C2=CC(C)=C(O2)[C@@H](O)[C@H](C(=C)C)CCC2=C[C@H]1OC2=O	> 100	> 100	–	–	–	> 100	> 100	> 100	> 100 µM	> 100	> 100	> 100 µM	> 100	> 100	> 100 µM	–	–	–	–	–
CN(CCCNC(=O)c1nn(C)c2c1Cc1ccccc1-2)CCCNC(=O)c1nn(C)c2c1Cc1ccccc1-2	24.5	31	30.2	26.8	31.6	25.6	27	–	40.8 µM	37.9	36.2	35.9 µM	37.2	40.6	24.4 µM	–	–	–	–	–
OC12c3ccccc3C1CCCCCCCCCC21OCCO1 (stereo not given)	> 100	> 100	> 100	> 100	> 100	> 100	–	–	> 100 µM	> 100	> 100	> 100 µM	> 100	> 100	> 100 µM	–	–	–	–	–
Cc1ccc(S(=O)(=O)C2=c3nc4ccccc4cc3=C3C(=O)c4ccccc4C(=O)C32)cc1 (stereo not given)	> 100	> 100	> 100	> 100	–	> 100	–	–	> 100 µM	> 100	> 100	> 100 µM	> 100	> 100	> 100 µM	–	–	–	–	–
O=C(c1cccs1)N1CCCN(C(=O)c2cccs2)C1=S	> 100	> 100	> 100	66.2	> 100	> 100	> 100	–	> 100 µM	> 100	> 100	> 100 µM	> 100	–	> 100 µM	–	–	–	–	–
COc1cc(C2C3=C(CCCC3=O)N(c3ccc(C)cc3)C3=C2C(=O)CCC3)c([N+](=O)[O-])cc1OC	> 100	> 100	–	–	> 100	> 100	–	–	> 100 µM	> 100	> 100	> 100 µM	–	–	> 100 µM	–	–	–	–	–
COc1ccc2oc(-c3ccc(OC)c(OC)c3OC)cc(=O)c2c1	> 100	> 100	> 100	> 100	> 100	> 100	–	–	> 100 µM	> 100	> 100	> 100 µM	> 100	68.3	–	–	–	–	–	–
Cc1cc2n[n+]3[n-]cc(-c4ccccc4)n3c2cc1[N+](=O)[O-]	> 100	> 100	> 100	> 100	–	> 100	> 100	–	> 100 µM	–	> 100	> 100 µM	–	> 100	> 100 µM	–	–	–	–	–
c1ccc(SC23C4C5C6C4C2C6C53)nc1 (stereo not given)	> 100	> 100	> 100	> 100	> 100	> 100	–	–	> 100 µM	> 31.6	> 100	> 100 µM	> 100	> 100	> 100 µM	–	–	–	–	–
CCn1c2c(c3ccccc31)[C@@H](c1ccc(Cl)cc1)CC1C(=O)N(c3ccccc3)C(=O)C21 (stereo not given in full)	> 100	> 100	> 100	> 100	> 100	> 100	–	–	> 100 µM	> 100	> 100	> 100 µM	> 100	> 100	> 100 µM	–	–	–	–	–
COC(=O)C1=C(O)CCCC(C2CCCCC(=O)C2C(=O)OC)=C1 (stereo not given)	> 100	> 100	> 100	–	> 100	> 100	> 100	> 100	> 100 µM	–	> 100	42.3 µM	–	–	> 100 µM	–	–	–	–	–
CCN(CC)CC1CN=C(N)O1 (stereo not given)	> 100	> 100	> 100	> 100	–	> 100	> 100	> 100	> 100 µM	–	–	> 100 µM	–	–	> 100 µM	–	–	–	–	–
Cc1nc2ccc(F)cc2c(Cl)c1CCCl	> 100	> 100	92.8	> 100	> 100	68.2	82.5	–	–	> 100	> 100	94.6 µM	87.6	93.6	98.6 µM	–	–	–	–	–
O=[N+]([O-])/C=C(\CS(=O)(=O)c1ccccc1)c1ccc2c(c1)OCO2	> 100	> 100	> 100	> 100	> 100	> 100	76.6	> 100	95.1 µM	> 100	–	> 100 µM	–	> 100	> 100 µM	–	–	–	–	–
COC(=O)CCNc1c2ccccc2nc2cccc([N+](=O)[O-])c12	0.00134	–	1.11	0.00667	–	0.00152	0.00104	0.00136	0.108 µM and 0.0278 µM	–	0.0312	0.00428 µM and 0.0364 µM	0.00226	0.00493	0.117 µM and 0.0124 µM	0.0015	0.00107	0.0016	0.00304	0.00136

Reference: PubChem BioAssay (NCI)
